The compounds below were run on human platelets (aggregation induced by PAF) (assay: inhibition of PAF-induced blood platelet aggregation in vitro). Conditions: Homo sapiens, read-out: IC50 (concentration for 50% inhibition of aggregation).
Type: cell-based
Protocol: To determine the PAF-antagonistic action of substances, use was made of the aggregation of human platelets induced in vitro by PAF. To obtain platelet-rich plasma (PRP), blood is taken from an uncompressed vein using a plastic syringe containing 3.8% strength sodium citrate solution. The ratio between sodium citrate solution and blood is 1:9. After careful mixing, the citrated blood is centrifuged at 150×g (1200 rpm) for 20 minutes. The platelet aggregation is measured by the method worked out by Born and Cross (G. V. R. Born and M. J. Cross, J. Physiol. 168, 178 (1963)), with PAF being added to the continuously stirred PRP to initiate the aggregation. The test substance is added in a volume of 10 ul in each case 2-3 minutes before initiation of the aggregation. The solvents used are either distilled water, ethanol and/or dimethyl sulphoxide. Blanks contain corresponding volumes of these solvents. After the initial absorption has been recorded (2-3 minutes), aggregation is induced with PAF (5×10^-8 M). To assess the effects of substances, use is made of the maximum of the first aggregation wave. The maximum absorption rate (=maximum aggregation×100%) induced by PAF is, in each case, simultaneously checked in a parallel mixture (=blank in one channel of the two-channel aggregometer) for each test mixture (second channel) and used as the 100% value. The aggregation obtained under the influence of the test substance is […].
Work on COc1nnc2n1-c1ccc(C(=O)NCC(=O)N3CCOCC3)cc1C(c1ccccc1Cl)=NC2 [compound 33] yielded an IC50 of 2.5 µM. In the case of C[C@H](NC(=O)c1ccc2c(c1)C(c1ccccc1Cl)=NCc1nnc(C3CC3)n1-2)C(=O)N1CCCC1 [compound 35], the IC50 is reported as 0.9 µM. With Cc1nnc2n1-c1ccc(Cl)cc1C(c1ccccc1Cl)=NC2 [Triazolam, triazolam, reference compound] the IC50 was 9 µM. Cc1nnc2n1-c1ccc(C(=O)N3CCC[C@H]3C(=O)N3CCOCC3)cc1C(c1ccccc1Cl)=NC2 [compound 18] showed an IC50 of 8.1 µM. COC(=O)C[C@H](NC(=O)c1ccc2c(c1)C(c1ccccc1Cl)=NCc1nnc(C)n1-2)C(=O)OC [compound 5] showed an IC50 of 1.2 µM. Compound COC(=O)CCNC(=O)c1ccc2c(c1)C(c1ccccc1Cl)=NCc1ncc(C)n1-2 [compound 2] has an IC50 of 0.9 µM. Work on Cc1nnc2n1-c1ccc(C(=O)NCC(=O)N3CCOCC3)cc1C(c1ccccc1Cl)=NC2 [compound 4] yielded an IC50 of 0.7 µM. COC(=O)[C@@H](CCSC)NC(=O)c1ccc2c(c1)C(c1ccccc1Cl)=NCc1nnc(C)n1-2 [compound 15] showed an IC50 of 0.9 µM. Cc1nnc2n1-c1ccc(C(=O)N[C@H](C(=O)NC(C)C)C(C)C)cc1C(c1ccccc1Cl)=NC2 [compound 27] gave an IC50 of 0.7 µM. Work on Cc1nnc2n1-c1ccc(C(=O)NC3CCSC3=O)cc1C(c1ccccc1Cl)=NC2 (stereo not drawn) [compound 11] yielded an IC50 of 3.5 µM. Compound Cc1nnc2n1-c1ccc(CC(=O)NCC(=O)N3CCOCC3)cc1C(c1ccccc1Cl)=NC2 [compound 12] has an IC50 of 1.1 µM. With CCN(CC)C(=O)[C@H](CC(C)C)NC(=O)c1ccc2c(c1)C(c1ccccc1Cl)=NCc1nnc(C)n1-2 [compound 16] the IC50 was 0.4 µM.

Same assay, conditions: read-out: IC50 (concentration for 50% inhibition of aggregation), Table A, human PRP, PAF 5×10^-8 M
In the case of Cc1nnc2n1-c1sc(CCC(=O)NCC(=O)N3CCOCC3)cc1C(c1ccccc1Cl)=NC2 [compound 48], the IC50 is reported as 0.6 µM. In the case of Cc1nnc2n1-c1ccc(C(=O)NCC(=O)N3CCOCC3)cc1C(c1ccccc1Cl)NC2 (stereo not drawn) [compound 21], the IC50 is reported as 1.9 µM. Cc1nnc2n1-c1sc(C(=O)N(C)CC(=O)N3CCOCC3)cc1C(c1ccccc1Cl)=NC2 [compound 28] was tested, and the IC50 was 1.9 µM.
